Experimental data as given in patent US12257216B2, “Treatment for hot flushes” (Dignity Health, priority 2017, dated 2025).
“Also recorded” adds a separate entry of the source.

Assays:
ovariectomized rats [1] = assay: ambient warming-induced cold-seeking test in a thermogradient apparatus; assay type: in vivo, rat; settings: vs OVX Vehicle+Vehicle
Method: Experiments were performed in adult female Wistar rats (Envigo) weighting 240-280 g at the day of the first surgery (Day 0). Rats were housed three per cage in standard “show boxes”. The room was maintained on a 12:12 h light-dark cycle (lights-on at 6 AM) at 24±2° C. All protocols were approved by the Institutional Animal Care and Use Committee.
On Day 0, each rat was subjected to a bilateral ovariectomy or sham surgery, either with or without simultaneous implantation of a miniature data logger into the peritoneal cavity for body temperature measurement. On Day 7, the ovariectomized rats were implanted subcutaneously with a capsule containing either estradiol or vehicle, and the sham-operated rats were implanted with a capsule containing vehicle. On Days 6-15, the rats were habituated to experimental setups and procedures. The rats were taken into experiments between Days 16 and 20 (Experiments 1-3) or on Days 13 and 20 (Experiment 4); each rat was used in two experiments. Thermal discomfort was studied in one of two tests: the ambient warming-induced cold-seeking test in a thermogradient apparatus (cold-seeking test; Experiments 1-3) or the internal warming-induced cessation of warm sucrose intake test (sucrose intake cessation test; Experiment 4). Some ovariectomized rats were treated with a TRPV1. antagonist (capsazepine, Al 165442, or SB366791) or vehicle prior to a test. After experiments (Day 21), each rat used in Experiments 1-3 was euthanized, and the uterus was removed and weighed to confirm the completeness of the ovariectomy and the effectiveness of the estradiol replacement procedure.
The goal of Experiment 1 was to determine whether ovariectomy facilitates the cold-seeking behavior after heat exposure, and whether this facilitation (if it occurs) is estradiol-dependent. […]
Cold-seeking test. […] The preferred ambient temperature was recorded for 10 min. […]

TRPV1 = TRPV1 (Homo sapiens, UniProt Q8NER1); settings: cited from earlier work
TRPV1, sequence (Q8NER1 whole entry, species assumed): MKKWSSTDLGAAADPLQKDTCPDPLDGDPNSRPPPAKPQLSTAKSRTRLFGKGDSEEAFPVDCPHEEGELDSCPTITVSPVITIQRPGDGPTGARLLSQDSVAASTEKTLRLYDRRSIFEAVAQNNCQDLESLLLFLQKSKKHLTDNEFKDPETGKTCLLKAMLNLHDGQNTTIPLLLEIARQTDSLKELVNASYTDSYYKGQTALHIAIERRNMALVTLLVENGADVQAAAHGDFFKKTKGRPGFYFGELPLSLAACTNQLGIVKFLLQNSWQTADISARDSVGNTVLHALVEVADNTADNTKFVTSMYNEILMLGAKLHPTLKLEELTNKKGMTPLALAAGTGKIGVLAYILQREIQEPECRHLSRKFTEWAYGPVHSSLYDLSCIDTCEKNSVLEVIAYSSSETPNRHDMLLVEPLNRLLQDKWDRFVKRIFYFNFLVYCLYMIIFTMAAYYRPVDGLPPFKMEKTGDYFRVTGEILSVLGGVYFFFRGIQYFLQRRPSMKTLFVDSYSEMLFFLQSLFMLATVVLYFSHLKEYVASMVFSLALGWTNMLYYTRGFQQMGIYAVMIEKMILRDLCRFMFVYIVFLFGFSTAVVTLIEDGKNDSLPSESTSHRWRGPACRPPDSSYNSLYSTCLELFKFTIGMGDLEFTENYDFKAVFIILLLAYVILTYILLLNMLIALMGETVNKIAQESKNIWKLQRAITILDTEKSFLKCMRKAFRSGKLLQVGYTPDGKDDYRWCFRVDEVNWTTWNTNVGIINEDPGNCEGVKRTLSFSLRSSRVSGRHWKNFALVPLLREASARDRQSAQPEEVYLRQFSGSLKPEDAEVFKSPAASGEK

[2] = as supported by animal studies; cited from earlier work
ovariectomized rats [3] = assay: uterus mass after ovariectomy and estradiol replacement; assay type: in vivo, rat; settings: Experiment 1; ovariectomized rats with estradiol replacement; mean±SE; Day 21
Source text: On Day 0, each rat was subjected to a bilateral ovariectomy or sham surgery, either with or without simultaneous implantation of a miniature data logger into the peritoneal cavity for body temperature measurement. On Day 7, the ovariectomized rats were implanted subcutaneously with a capsule containing either estradiol or vehicle, and the sham-operated rats were implanted with a capsule containing vehicle. On Days 6-15, the rats were habituated to experimental setups and procedures. The rats were taken into experiments between Days 16 and 20 (Experiments 1-3) or on Days 13 and 20 (Experiment 4); each rat was used in two experiments. Thermal discomfort was studied in one of two tests: the ambient warming-induced cold-seeking test in a thermogradient apparatus (cold-seeking test; Experiments 1-3) or the internal warming-induced cessation of warm sucrose intake test (sucrose intake cessation test; Experiment 4). Some ovariectomized rats were treated with a TRPV1. antagonist (capsazepine, Al 165442, or SB366791) or vehicle prior to a test. […] All data arc expressed as mean±SE. The preferred ambient temperature and sucrose intake data analyzed by a two-way repeated-measurements ANOVA, followed by the Fisher or Newman-Keuls multiple comparisons test, as appropriate. The uterus mass data were analyzed by a one-way ANOVA followed by the Fisher test. […]

ovariectomized rats [4] = assay: internal warming-induced cessation of warm sucrose intake test (sucrose intake cessation test); assay type: in vivo, rat; settings: Experiment 4, SB366791 10 mg/kg by oral gavage 20 min prior to heat exposure (32.5° C., 10 min), vs OVX Vehicle+Vehicle
Method: Experiments were performed in adult female Wistar rats (Envigo) weighting 240-280 g at the day of the first surgery (Day 0). Rats were housed three per cage in standard “show boxes”. The room was maintained on a 12:12 h light-dark cycle (lights-on at 6 AM) at 24±2° C. All protocols were approved by the Institutional Animal Care and Use Committee. On Day 0, each rat was subjected to a bilateral ovariectomy or sham surgery, either with or without simultaneous implantation of a miniature data logger into the peritoneal cavity for body temperature measurement. On Day 7, the ovariectomized rats were implanted subcutaneously with a capsule containing either estradiol or vehicle, and the sham-operated rats were implanted with a capsule containing vehicle. On Days 6-15, the rats were habituated to experimental setups and procedures. […] Each burette was fitted with a stainless steel spout and filled with a 0.3 M sucrose solution at either 27 or 40° C., and sucrose solution consumption was recorded for 15 min. […] All data arc expressed as mean±SE. The preferred ambient temperature and sucrose intake data analyzed by a two-way repeated-measurements ANOVA, followed by the Fisher or Newman-Keuls multiple comparisons test, as appropriate. The uterus mass data were analyzed by a one-way ANOVA followed by the Fisher test. […]

Oc1cc2c(cc1O)CN(C(=S)NCCc1ccc(Cl)cc1)CCC2 [capsazepine]
heat exposure-induced cold-seeking behavior (preferred ambient temperature) (ovariectomized rats [1]; Experiment 2, capsazepine 40 mg/kg by oral gavage 30 min prior to 10-min mild heat exposure (31° C.)): strongly attenuated; also recorded: treat this thermal discomfort | heat exposure-induced cold-seeking behavior (preferred ambient temperature) (ovariectomized rats [1]; Experiment 2, capsazepine 40 mg/kg by oral gavage 30 min prior to 10-min mild heat exposure (31° C.), listed as Capsazepine): significant difference

Cc1cc2c(NC(=O)N[C@@H]3CC(CF)(CF)Oc4cc(Cl)ccc43)cccc2cn1 [A1165442]
heat exposure-induced cold-seeking behavior (preferred ambient temperature) (ovariectomized rats [1]; Experiment 3, A1165442 100 mg/kg by oral gavage prior to 10-min mild heat exposure (31° C.), 100 mg/kg): strongly attenuated; also recorded: treat this thermal discomfort; also recorded: significant difference

FC(F)(F)c1ccc(-c2cc(Nc3ccc4ncsc4c3)ncn2)c(NCC2CCCCC2)c1 [AMG7905]
effect on activation of TRPV1 by protons (TRPV1): potentiate the activation of TRPV1 by protons | effect on body temperature [2]: cause hypothermia

C[C@]12CC[C@@H]3c4ccc(O)cc4CC[C@H]3[C@@H]1CC[C@@H]2O [Estradiol, estradiol]
uterus mass (ovariectomized rats [3]): 0.42 ± 0.02 g

COc1cccc(NC(=O)/C=C/c2ccc(Cl)cc2)c1 [SB366791]
cumulative intake of warm (40° C.) sucrose solution (avoidance of internal warming) (ovariectomized rats [4]): attenuated; also recorded: treat this thermal discomfort; also recorded: significant difference
